assay: method code SF, from Furst, W.; Becher, M. (1990). Homologues of 2-acetamido-4-nitropropoxybenzene (Falimint). I. Preparation, physicochemical and organoleptic properties. Pharmazie, 45(12)934-935.

logP | SMILES
1.6 | CCCOc1ccc([N+](=O)[O-])cc1NC(C)=O
2.67 | CCCCCOc1ccc([N+](=O)[O-])cc1NC(C)=O
3.48 | CCCCCCCCCCCC(=O)Nc1cc([N+](=O)[O-])ccc1OCCC
3.65 | CCCCCCCCCCCCOc1ccc([N+](=O)[O-])cc1NC(C)=O
1.6 | COc1ccc([N+](=O)[O-])cc1NC(C)=O
3.3 | CCCCCCCCCC(=O)Nc1cc([N+](=O)[O-])ccc1OCCC
2.91 | CCCCCCOc1ccc([N+](=O)[O-])cc1NC(C)=O
3.18 | CCCCCCCCOc1ccc([N+](=O)[O-])cc1NC(C)=O
1.85 | CCOc1ccc([N+](=O)[O-])cc1NC(=O)CC
2.26 | CCCCOc1ccc([N+](=O)[O-])cc1NC(C)=O
3.14 | CCCCCCCC(=O)Nc1cc([N+](=O)[O-])ccc1OCCC
2.4 | CCCOc1ccc([N+](=O)[O-])cc1NC(=O)CCC
1.93 | CCCOc1ccc([N+](=O)[O-])cc1NC(=O)CC
2.78 | CCCCCC(=O)Nc1cc([N+](=O)[O-])ccc1OCCC
